{
  "source": "paper PMC3731424",
  "about": "(Biochemistry, 2013)",
  "key": {"B. subtilis PBP4a": {"target": "B. subtilis PBP4a (Bacillus subtilis, UniProt P39844)", "experiment": "Inhibition of B. subtilis PBP4a, competition with substrate 14", "format": "biochemical"}, "[1]": {"experiment": "Hydration equilibrium of the carbonyl compounds in aqueous solution", "format": "physicochemical", "settings": "from 1H NMR spectra"}, "[2]": {"target": "T1, Actinomadura R39 DD-peptidase (Actinomadura sp., UniProt P39045)", "T1 sequence (P39045 50-538)": "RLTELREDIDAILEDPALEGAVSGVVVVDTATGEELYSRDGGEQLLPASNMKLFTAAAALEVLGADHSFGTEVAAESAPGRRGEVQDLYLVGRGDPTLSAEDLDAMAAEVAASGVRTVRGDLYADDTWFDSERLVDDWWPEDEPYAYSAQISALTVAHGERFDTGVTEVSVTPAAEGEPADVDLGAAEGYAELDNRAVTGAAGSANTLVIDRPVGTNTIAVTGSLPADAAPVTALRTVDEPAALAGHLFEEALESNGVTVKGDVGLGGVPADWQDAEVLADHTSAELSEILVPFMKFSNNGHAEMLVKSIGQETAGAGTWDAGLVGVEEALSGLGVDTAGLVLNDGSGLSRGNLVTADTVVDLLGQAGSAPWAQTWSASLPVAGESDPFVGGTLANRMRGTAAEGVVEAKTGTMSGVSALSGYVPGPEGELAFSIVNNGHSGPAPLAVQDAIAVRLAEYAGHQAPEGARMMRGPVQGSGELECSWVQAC", "format": "biochemical"}, "[3]": {"target": "T1, Actinomadura R39 DD-peptidase", "format": "biochemical", "remark": "listed apart in the source"}, "[4]": {"settings": "literature estimate; cited from earlier work"}, "[5]": {"settings": "cited from earlier work"}},
  "note": "Like-named read-outs stand apart in the source and are kept apart here.",
  "data": [
    {"smiles": "C[C@H](C=O)NC(=O)CCCC[C@@H](N)C(=O)O", "note": "[Compound 11]", "values": [
      {"measurement": "Time dependence of inhibition, PBP4a", "setting": "B. subtilis PBP4a", "value": "No time dependence"},
      {"measurement": "KH (hydration equilibrium constant [IOH2]/[I])", "setting": "[1]", "value": 30},
      {"measurement": "Time dependence of inhibition, R39 DD-peptidase", "setting": "[2]", "value": "No time dependence"}
    ]},
    {"smiles": "CC(NC(=O)CCCC[C@@H](N)C(=O)O)C(=O)C(F)(F)F", "note": "(stereo partly drawn) [Compound 12, D-α-Aminopimelyl-(1,1,1-trifluoro-3-amino)butan-2-one]", "values": [
      {"measurement": "Ki", "setting": "B. subtilis PBP4a", "value": 13.5, "unit": "µM"},
      {"measurement": "Time dependence of inhibition, PBP4a", "setting": "B. subtilis PBP4a", "value": "No time dependence"},
      {"measurement": "Ki", "setting": "[2]", "value": 370, "unit": "nM"},
      {"measurement": "Time dependence of inhibition, R39 DD-peptidase", "setting": "[2]", "value": "No time dependence"},
      {"measurement": "Ki", "setting": "[3]", "value": 170, "unit": "nM"}
    ]},
    {"smiles": "C[C@@H](SC(=O)CNC(=O)Cc1ccccc1)C(=O)O", "note": "[Compound 14, (Phenylacetyl)glycyl-D-thiolactate, reference compound]", "values": [
      {"measurement": "Km", "setting": "B. subtilis PBP4a; read-out: Km of the substrate, PBP4a, 20 mM MOPS pH 7.50, 25 °C", "value": "440 ± 80", "unit": "µM"}
    ]},
    {"smiles": "CC(=O)C(F)(F)F", "note": "[trifluoroacetone]", "values": [
      {"measurement": "KH, lower limit estimate", "setting": "[4]", "value": "≥ 35"}
    ]},
    {"smiles": "OCC(F)(F)F", "note": "[trifluoroethanol]", "values": [
      {"measurement": "pKa", "setting": "[5]", "value": 12.4}
    ]}
  ]
}
